From US11214803B2, “Modulators of YAP1 expression” (Ionis Pharmaceuticals, Inc., priority 2019, dated 2022)
Strand notation (5' to 3'): a small letter for the sugar, then the base; units joined by * are phosphorothioate-linked, units joined directly phosphodiester-linked; [ ] holds rarer units or linkages, { } end groups; capitals alone tell only the bases. k = constrained ethyl (cEt); [5mC] = 5-methylcytosine; d = 2'-deoxy (DNA)

What follows are substances tested on Yap1 mRNA (assay: Antisense inhibition of human Yap1 in A-431 cells by cEt gapmers, single dose (Example 2, RTS4814)). Settings: A-431 cells, 5,000 cells per well, free uptake, 2,000 nM modified oligonucleotide, approx. 48 hours, RTS4814, normalized to RIBOGREEN; Table 4; asterisk (*) = targets amplicon region of primer probe set.
Assay type: cell-based
Summary of the method: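 A-431 cells (5,000/well) received 2,000 nM oligonucleotide by free uptake for about 48 h. Yap1 mRNA was then quantified by RT-qPCR with primer probe set RTS4814, normalized to RIBOGREEN total RNA, and reported as % of untreated control; asterisked values mark oligos inside the amplicon.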
“716538 (antisense kT*k[5mC]*kT*dG*dA*dA*dA*d[5mC]*dT*d[5mC]*d[5mC]*dA*dA*kA*kT*k[5mC]) [Compound 716538]” was tested, and the “YAP1 (% UTC)” value was 77 % UTC. “716379 (k[5mC]*k[5mC]*kA*dG*dA*dA*dG*dA*dT*dG*dT*d[5mC]*dT*kT*kT*kG; antisense) [Compound 716379]” was tested, and the “YAP1 (% UTC)” value was 123 % UTC. For “716415 (kA*kG*k[5mC]*dT*d[5mC]*d[5mC]*dT*d[5mC]*dT*d[5mC]*d[5mC]*dT*dT*k[5mC]*kT*kA; antisense) [Compound 716415]”, the “YAP1 (% UTC)” value was 90 % UTC.

Same assay, conditions: Table 5; A-431 cells, 5,000 cells per well, free uptake, 2,000 nM modified oligonucleotide, approx. 48 hours; RTS4814; normalized to RIBOGREEN; Yap1 mRNA relative to untreated control cells
In the case of “716497 (kA*kG*k[5mC]*dA*dG*d[5mC]*dT*dT*dT*dT*dG*d[5mC]*d[5mC]*kA*kG*kG; antisense) [Compound 716497]”, the “YAP1 (% UTC)” value was 65 % UTC. For “716389 (kA*kG*k[5mC]*d[5mC]*dT*dT*dG*dG*dG*dT*d[5mC]*dT*dA*kG*k[5mC]*k[5mC]; antisense) [Compound 716389]”, the “YAP1 (% UTC)” value was 93 % UTC. “716458 (kA*kA*kG*d[5mC]*dA*dG*dG*dG*dA*dA*dA*d[5mC]*d[5mC]*kT*kA*kA; antisense) [Compound 716458]” was tested, and the “YAP1 (% UTC)” value was 94 % UTC.

Same assay, conditions: Table 6; A-431 cells, 5,000 cells per well, free uptake, 2,000 nM modified oligonucleotide, approx. 48 hours; RTS4814; normalized to RIBOGREEN; Yap1 mRNA relative to untreated control cells
With “716558 (k[5mC]*kT*k[5mC]*dT*dT*dA*d[5mC]*dA*dT*d[5mC]*dT*dA*dA*kA*kA*k[5mC]; antisense) [Compound 716558]” the “YAP1 (% UTC)” value was 81 % UTC. For “716357 (k[5mC]*kG*k[5mC]*d[5mC]*d[5mC]*d[5mC]*dG*dG*d[5mC]*dT*d[5mC]*d[5mC]*dA*k[5mC]*kG*kG; antisense) [Compound 716357]”, the “YAP1 (% UTC)” value was 127 % UTC. “716567 (kG*kA*k[5mC]*dT*dA*dT*dA*d[5mC]*dA*dA*d[5mC]*dA*dG*kG*k[5mC]*k[5mC]; antisense) [Compound 716567]” was tested, and the “YAP1 (% UTC)” value was 134 % UTC.

Same assay, conditions: Table 18; A-431 cells, 5,000 cells per well, free uptake, 2,000 nM modified oligonucleotide, approx. 48 hours; RTS4814; normalized to RIBOGREEN; Yap1 mRNA as percent of untreated control
With “1075268 (antisense kT*kA*kT*dT*dA*dA*d[5mC]*d[5mC]*dT*dG*dG*dA*dG*kA*kG*kT) [Compound 1075268]” the “YAP1 (% UTC)” value was 47 % UTC. “1075460 (antisense kA*kA*kT*dA*dA*d[5mC]*d[5mC]*dA*dA*dG*dG*dA*dT*kA*kG*kT) [Compound 1075460]” was tested, and the “YAP1 (% UTC)” value was 30 % UTC. For “1075492 (antisense kG*k[5mC]*kT*dA*dA*dA*dA*dT*dG*dA*dT*dA*d[5mC]*kT*kT*k[5mC]) [Compound 1075492]”, the “YAP1 (% UTC)” value was 29 % UTC.

Same assay, conditions: Table 19; A-431 cells, 5,000 cells per well, free uptake, 2,000 nM modified oligonucleotide, approx. 48 hours; RTS4814; normalized to RIBOGREEN; Yap1 mRNA as percent of untreated control
In the case of “1075557 (kT*kA*kT*dT*dA*dA*dG*dG*dT*dG*dG*d[5mC]*dT*kT*kA*k[5mC]; antisense) [Compound 1075557]”, the “YAP1 (% UTC)” value was 57 % UTC. With “1075109 (antisense kA*k[5mC]*kT*dA*dA*dA*dA*dA*d[5mC]*dA*dT*dT*dG*kT*kG*kG) [Compound 1075109]” the “YAP1 (% UTC)” value was 71 % UTC. With “1076293 (kG*k[5mC]*kT*dT*dA*dT*dT*dA*dT*dT*dG*dA*dG*kT*kT*kA; antisense) [Compound 1076293]” the “YAP1 (% UTC)” value was 3 % UTC.

Same assay, conditions: Table 20; Yap1 mRNA, percent of untreated control; 3-10-3 cEt gapmers targeting SEQ ID NO.: 1 and 2
With “1074950 (antisense kA*kT*k[5mC]*dA*dG*dG*dT*dT*dA*dA*dG*dT*dG*kA*kT*kT) [Compound 1074950]” the “YAP1 (% UTC)” value was 120 % UTC. For “1074374 (antisense kT*kG*k[5mC]*dT*dT*dT*dG*dG*dT*dT*dG*dA*dT*kA*kG*kT) [Compound 1074374]”, the “YAP1 (% UTC)” value was 13 % UTC. In the case of “1076166 (kA*kT*kT*dT*dA*d[5mC]*dA*d[5mC]*d[5mC]*dA*d[5mC]*d[5mC]*dG*k[5mC]*k[5mC]*k[5mC]; antisense) [Compound 1076166]”, the “YAP1 (% UTC)” value was 77 % UTC. With “1075014 (antisense kG*kG*kA*dG*dA*dA*dA*dT*dA*dA*dA*dA*dG*kT*k[5mC]*kG) [Compound 1075014]” the “YAP1 (% UTC)” value was 46 % UTC. “1074214 (antisense kT*k[5mC]*k[5mC]*dG*dG*d[5mC]*dG*dG*d[5mC]*dT*dT*dG*dA*kA*kG*kA) [Compound 1074214]” was tested, and the “YAP1 (% UTC)” value was 89 % UTC. “1075462 (antisense kG*kT*kT*dT*dA*dT*dA*dG*dA*d[5mC]*dA*dA*dG*kT*k[5mC]*kA) [Compound 1075462]” was tested, and the “YAP1 (% UTC)” value was 15 % UTC.

Same assay, conditions: Table 21; Yap1 mRNA, percent of untreated control; 3-10-3 cEt gapmers targeting SEQ ID NO.: 1 and 2
In the case of “1075143 (antisense k[5mC]*k[5mC]*kT*dT*dA*dT*dT*dA*dG*dT*d[5mC]*dA*dG*kT*kT*k[5mC]) [Compound 1075143]”, the “YAP1 (% UTC)” value was 2 % UTC. In the case of “1076455 (antisense kA*k[5mC]*kT*dA*dA*dA*dT*dA*d[5mC]*dT*dT*dT*dT*kA*kG*k[5mC]) [Compound 1076455]”, the “YAP1 (% UTC)” value was 86 % UTC.

Same assay, conditions: Table 22; Yap1 mRNA as percent of untreated control; 3-10-3 cEt gapmers; single dose
With “1074824 (k[5mC]*k[5mC]*kT*dG*dA*dG*d[5mC]*dA*d[5mC]*dT*d[5mC]*dA*dT*kT*kT*k[5mC]; antisense) [Compound 1074824]” the “YAP1 (% UTC)” value was 53 % UTC. “1074856 (antisense kT*kT*kT*dG*dA*d[5mC]*dA*dA*dG*dT*dG*dT*dG*k[5mC]*kA*kT) [Compound 1074856]” was tested, and the “YAP1 (% UTC)” value was 15 % UTC. “1075240 (antisense kT*kA*kA*dA*d[5mC]*dG*dG*dT*dT*dT*dA*dT*dA*kT*kT*k[5mC]) [Compound 1075240]” was tested, and the “YAP1 (% UTC)” value was 16 % UTC.

Same assay, conditions: Table 23; Yap1 mRNA as percent of untreated control; 3-10-3 cEt gapmers; single dose
“1075753 (k[5mC]*kT*kA*dG*dA*dA*d[5mC]*d[5mC]*dT*dT*dT*dT*d[5mC]*k[5mC]*kA*kG; antisense) [Compound 1075753]” was tested, and the “YAP1 (% UTC)” value was 65 % UTC. With “1075977 (kG*kA*kT*dT*dA*dA*dA*dA*dG*dT*d[5mC]*dG*dG*kG*k[5mC]*k[5mC]; antisense) [Compound 1075977]” the “YAP1 (% UTC)” value was 73 % UTC. “1076361 (kT*kG*kG*dG*dA*dA*dA*dA*dG*d[5mC]*dT*dA*d[5mC]*k[5mC]*kA*k[5mC]; antisense) [Compound 1076361]” was tested, and the “YAP1 (% UTC)” value was 87 % UTC.

Same assay, conditions: Table 32; Yap1 mRNA, percent of untreated control; 3-10-3 cEt gapmers targeting SEQ ID NO.: 1, and 2
“1075538 (kG*kA*kA*dT*dT*dG*dG*dA*dA*d[5mC]*dA*d[5mC]*d[5mC]*kT*k[5mC]*kA; antisense) [compound 1075538]” was tested, and the “YAP1 (% UTC)” value was 66 % UTC. “1075346 (antisense kG*kT*kA*dA*dG*dT*dA*dA*dA*dA*d[5mC]*dT*dG*k[5mC]*kT*kG) [compound 1075346]” was tested, and the “YAP1 (% UTC)” value was 16 % UTC.

Same assay, conditions: Table 33; Yap1 mRNA, percent of untreated control; 3-10-3 cEt gapmers targeting SEQ ID NO.: 1, and 2
“1075475 (kT*kA*kG*d[5mC]*dA*dA*d[5mC]*dA*d[5mC]*dA*dT*dG*dA*kA*kG*kA; antisense) [compound 1075475]” was tested, and the “YAP1 (% UTC)” value was 64 % UTC. For “1075923 (antisense kT*kT*kT*dA*dA*dT*dA*d[5mC]*dT*d[5mC]*dT*d[5mC]*dT*kG*kG*kG) [compound 1075923]”, the “YAP1 (% UTC)” value was 42 % UTC. For “1075379 (antisense kT*kA*k[5mC]*d[5mC]*dA*dA*dA*dA*d[5mC]*dT*dA*d[5mC]*dA*kA*k[5mC]*k[5mC]) [compound 1075379]”, the “YAP1 (% UTC)” value was 75 % UTC. In the case of “1074515 (kT*kA*kA*d[5mC]*dT*dG*dG*dA*dA*dA*dG*d[5mC]*dA*kG*kG*kG; antisense) [compound 1074515]”, the “YAP1 (% UTC)” value was 9 % UTC. With “1075539 (k[5mC]*kT*kT*dA*dA*dG*dG*dG*dA*dT*dG*dG*dA*kA*k[5mC]*kA; antisense) [compound 1075539]” the “YAP1 (% UTC)” value was 79 % UTC.

Same assay, conditions: Yap1 mRNA as percent of untreated control; A-431 cells; 3-10-3 cEt gapmers targeting SEQ ID NO.: 1, and 2; Table 30
“1074224 (antisense k[5mC]*kA*kG*dA*dG*dA*d[5mC]*dT*dA*d[5mC]*dT*d[5mC]*d[5mC]*kA*kG*kT) [compound 1074224]” was tested, and the “YAP1 (% UTC)” value was 16 % UTC. With “1076048 (kG*kA*kT*dT*dA*dA*dA*dG*dG*d[5mC]*dT*dG*dG*kA*kA*kG; antisense) [compound 1076048]” the “YAP1 (% UTC)” value was 32 % UTC.

Same assay, conditions: Yap1 mRNA as percent of untreated control; A-431 cells; 3-10-3 cEt gapmers targeting SEQ ID NO.: 1, and 2; Table 31
In the case of “1075377 (antisense k[5mC]*kT*kA*dG*dA*dA*dA*dG*dG*dT*dT*dG*dG*k[5mC]*k[5mC]*k[5mC]) [compound 1075377]”, the “YAP1 (% UTC)” value was 108 % UTC. “1074289 (antisense kT*kG*kA*d[5mC]*dT*dG*dA*dT*dT*d[5mC]*dT*d[5mC]*dT*kG*kG*kT) [compound 1074289]” was tested, and the “YAP1 (% UTC)” value was 13 % UTC.
